Measured values: the supplement of paper PMC11061612

Key:
Test in all cases: Bliss excess, mean over the matrix (fraction); higher = more synergy
GOTO (Neuroblastoma) = system: GOTO (Neuroblastoma)
Outline: (§1)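 Bliss excess equals the observed combination effect minus the expected value EA + EB − EA·EB, where EA and EB are the effects of each agent alone. Combination Emax is the second-highest inhibition within the matrix. Inhibition was scaled from CellTiter-Glo 2.0 luminescence, with 0 set by vehicle wells and 1 by blank wells, after 72 hours of two-drug dosing of cells plated in 1536-well plates.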

[1] = system: NCI-H2405 (Lung Adenocarcinoma)
Outline: as §1

EW-18 (Ewing's Sarcoma) = system: EW-18 (Ewing's Sarcoma)
Outline: as §1

[2] = system: SCC-9 (Oral Cavity Carcinoma)
Outline: as §1

[3] = system: HSC-2 (Oral Cavity Carcinoma)
Outline: as §1

[4] = system: NCI-H513 (Other Solid Carcinomas)
Outline: as §1

[5] = system: LC4-1 (B-Lymphoblastic Leukemia)
Outline: as §1

EW-13 (Ewing's Sarcoma) = system: EW-13 (Ewing's Sarcoma)
Outline: as §1

[6] = system: ASH-3 (Thyroid Gland Carcinoma)
Outline: as §1

[7] = system: NCI-H322M (Lung Adenocarcinoma)
Outline: as §1

BT-20 (Breast Carcinoma) = system: BT-20 (Breast Carcinoma)
Outline: as §1

[8] = system: LOU-NH91 (Squamous Cell Lung Carcinoma)
Outline: as §1

[9] = system: H-EMC-SS (Chondrosarcoma)
Outline: as §1

[10] = system: VMRC-LCD (Lung Adenocarcinoma)
Outline: as §1

[11] = system: BV-173 (Chronic Myelogenous Leukemia)
Outline: as §1

NH-12 (Neuroblastoma) = system: NH-12 (Neuroblastoma)
Outline: as §1

[12] = system: EBC-1 (Squamous Cell Lung Carcinoma)
Outline: as §1

[13] = system: KINGS-1 (Low Grade Glioma)
Outline: as §1

[14] = system: OVISE (Ovarian Carcinoma)
Outline: as §1

Cc1cc2ncnn2cc1Nc1ncc2c(n1)n(C1CCOCC1)c(=O)n2C [AZD7648] + C=CCn1c(=O)c2cnc(Nc3ccc(N4CCN(C)CC4)cc3)nc2n1-c1cccc(C(C)(C)O)n1 [AZD1775] (first compound max 10 µM, partner max 1 µM)
Bliss excess (GOTO (Neuroblastoma)): -0.0421 | Bliss excess [1]: -0.0064 | Bliss excess (EW-18 (Ewing's Sarcoma)): -0.0322 | Bliss excess [2]: 0.0332 | Bliss excess [3]: 0.0566 | Bliss excess [4]: 0.0054 | Bliss excess [5]: -0.001 | Bliss excess (EW-13 (Ewing's Sarcoma)): 0.0225 | Bliss excess [6]: -0.0006 | Bliss excess [7]: -0.0215 | Bliss excess (BT-20 (Breast Carcinoma)): -0.0186 | Bliss excess [8]: 0.012 | Bliss excess [9]: -0.028 | Bliss excess [10]: -0.0057 | Bliss excess [11]: 0.0237 | Bliss excess (NH-12 (Neuroblastoma)): 0.0005 | Bliss excess [12]: -0.0041 | Bliss excess [13]: -0.0041 | Bliss excess [14]: -0.0043

CN(C)CCCOc1ccc(-c2ccc3ncc4c(c3c2)n(C2CCOCC2)c(=O)n4C)cn1 [AZD0156] + C=CCn1c(=O)c2cnc(Nc3ccc(N4CCN(C)CC4)cc3)nc2n1-c1cccc(C(C)(C)O)n1 [AZD1775] (first compound max 1 µM, partner max 1 µM)
Bliss excess (GOTO (Neuroblastoma)): 0.0051 | Bliss excess [1]: -0.0544 | Bliss excess (EW-18 (Ewing's Sarcoma)): -0.0245 | Bliss excess [2]: -0.036 | Bliss excess [3]: -0.0507 | Bliss excess [4]: 0.001 | Bliss excess [5]: -0.0353 | Bliss excess (EW-13 (Ewing's Sarcoma)): 0.0215 | Bliss excess [6]: 0.0012 | Bliss excess [7]: -0.0027 | Bliss excess (BT-20 (Breast Carcinoma)): -0.0937 | Bliss excess [8]: -0.0349 | Bliss excess [9]: -0.0535 | Bliss excess [10]: -0.0399 | Bliss excess [11]: 0.0116 | Bliss excess (NH-12 (Neuroblastoma)): -0.0406 | Bliss excess [12]: -0.0603 | Bliss excess [13]: -0.0779 | Bliss excess [14]: -0.0374

COc1cccc(OCCCN)c1-c1cc(Nc2cnc(C#N)cn2)n[nH]1 [Prexasertib] + C[C@@H]1COCCN1C2=NC(=NC(=C2)C3(CC3)[S@](=N)(=O)C)C4=C5C=CNC5=NC=C4 [AZD6738] (first compound max 1 µM, 7x7, partner max 10 µM)
Bliss excess (GOTO (Neuroblastoma)): -0.0866 | Bliss excess [1]: 0.0046 | Bliss excess (EW-18 (Ewing's Sarcoma)): -0.0548 | Bliss excess [2]: 0.0803 | Bliss excess [3]: 0.0649 | Bliss excess [4]: -0.0104 | Bliss excess [5]: -0.0033 | Bliss excess (EW-13 (Ewing's Sarcoma)): 0.0572 | Bliss excess [6]: 0.0902 | Bliss excess [7]: -0.0367 | Bliss excess (BT-20 (Breast Carcinoma)): -0.0218 | Bliss excess [8]: 0.0295 | Bliss excess [9]: -0.0013 | Bliss excess [10]: 0.0201 | Bliss excess [11]: -0.0473 | Bliss excess (NH-12 (Neuroblastoma)): -0.0392 | Bliss excess [12]: -0.0113 | Bliss excess [13]: 0.0426 | Bliss excess [14]: 0.0341

COc1cccc2c1C(=O)c1c(O)c3c(c(O)c1C2=O)C[C@@](O)(C(=O)CO)C[C@@H]3O[C@H]1C[C@H](N)[C@H](O)[C@H](C)O1 [Doxorubicin] + Cc1cc2ncnn2cc1Nc1ncc2c(n1)n(C1CCOCC1)c(=O)n2C [AZD7648] (first compound max 1 µM, 7x7, partner max 10 µM)
Bliss excess (GOTO (Neuroblastoma)): 0.0644 | Bliss excess [1]: -0.0042 | Bliss excess (EW-18 (Ewing's Sarcoma)): 0.0402 | Bliss excess [2]: -0.0027 | Bliss excess [3]: 0.0891 | Bliss excess [4]: 0.0341 | Bliss excess [5]: 0.111 | Bliss excess (EW-13 (Ewing's Sarcoma)): 0.0376 | Bliss excess [6]: 0.0829 | Bliss excess [7]: 0.0751 | Bliss excess (BT-20 (Breast Carcinoma)): 0.0371 | Bliss excess [8]: 0.0236 | Bliss excess [9]: -0.0179 | Bliss excess [10]: 0.0256 | Bliss excess [11]: 0.0953 | Bliss excess (NH-12 (Neuroblastoma)): 0.0953 | Bliss excess [12]: 0.0275 | Bliss excess [13]: 0.0173 | Bliss excess [14]: 0.0341

Cc1cc2ncnn2cc1Nc1ncc2c(n1)n(C1CCOCC1)c(=O)n2C [AZD7648] + CN(C)CCCOc1ccc(-c2ccc3ncc4c(c3c2)n(C2CCOCC2)c(=O)n4C)cn1 [AZD0156] (first compound max 10 µM, 7x7, partner max 1 µM)
Bliss excess (GOTO (Neuroblastoma)): -0.0264 | Bliss excess [1]: -0.0074 | Bliss excess (EW-18 (Ewing's Sarcoma)): -0.0268 | Bliss excess [2]: -0.0144 | Bliss excess [3]: 0.0203 | Bliss excess [4]: -0.0145 | Bliss excess [5]: 0.0127 | Bliss excess (EW-13 (Ewing's Sarcoma)): -0.0385 | Bliss excess [6]: 0.0116 | Bliss excess [7]: 0.0083 | Bliss excess (BT-20 (Breast Carcinoma)): 0.0154 | Bliss excess [8]: 0.0454 | Bliss excess [9]: -0.0396 | Bliss excess [10]: 0.0122 | Bliss excess [11]: 0.0151 | Bliss excess (NH-12 (Neuroblastoma)): -0.0153 | Bliss excess [12]: 0.0204 | Bliss excess [13]: 0.0089 | Bliss excess [14]: 0.0265

Cc1cc2ncnn2cc1Nc1ncc2c(n1)n(C1CCOCC1)c(=O)n2C [AZD7648] + O=C(c1cc(Cc2n[nH]c(=O)c3ccccc23)ccc1F)N1CCN(C(=O)C2CC2)CC1 [Olaparib] (first compound max 10 µM, 7x7, partner max 10 µM)
Bliss excess (GOTO (Neuroblastoma)): 0.0388 | Bliss excess [1]: -0.0277 | Bliss excess (EW-18 (Ewing's Sarcoma)): -0.0427 | Bliss excess [2]: -0.0438 | Bliss excess [3]: -0.0277 | Bliss excess [4]: -0.0002 | Bliss excess [5]: -0.0517 | Bliss excess (EW-13 (Ewing's Sarcoma)): -0.0427 | Bliss excess [6]: 0.0057 | Bliss excess [7]: -0.0342 | Bliss excess (BT-20 (Breast Carcinoma)): -0.0492 | Bliss excess [8]: -0.0301 | Bliss excess [9]: -0.0759 | Bliss excess [10]: -0.0443 | Bliss excess [11]: -0.0062 | Bliss excess (NH-12 (Neuroblastoma)): 0.0165 | Bliss excess [12]: -0.0167 | Bliss excess [13]: -0.0561 | Bliss excess [14]: -0.0526

CN(C)CCCOc1ccc(-c2ccc3ncc4c(c3c2)n(C2CCOCC2)c(=O)n4C)cn1 [AZD0156] + C[C@@H]1COCCN1C2=NC(=NC(=C2)C3(CC3)[S@](=N)(=O)C)C4=C5C=CNC5=NC=C4 [AZD6738] (first compound max 1 µM, 7x7, partner max 10 µM)
Bliss excess (GOTO (Neuroblastoma)): -0.0394 | Bliss excess [1]: -0.0027 | Bliss excess (EW-18 (Ewing's Sarcoma)): 0.0047 | Bliss excess [2]: -0.0424 | Bliss excess [3]: 0.0867 | Bliss excess [4]: 0.0235 | Bliss excess [5]: -0.0743 | Bliss excess (EW-13 (Ewing's Sarcoma)): 0.0006 | Bliss excess [6]: 0.0429 | Bliss excess [7]: -0.0076 | Bliss excess (BT-20 (Breast Carcinoma)): 0.0152 | Bliss excess [8]: -0.0001 | Bliss excess [9]: -0.0707 | Bliss excess [10]: -0.0343 | Bliss excess [11]: 0.0179 | Bliss excess (NH-12 (Neuroblastoma)): -0.0215 | Bliss excess [12]: 0.0195 | Bliss excess [13]: -0.0474 | Bliss excess [14]: 0.0317

C=CCn1c(=O)c2cnc(Nc3ccc(N4CCN(C)CC4)cc3)nc2n1-c1cccc(C(C)(C)O)n1 [AZD1775] + C[C@@H]1COCCN1C2=NC(=NC(=C2)C3(CC3)[S@](=N)(=O)C)C4=C5C=CNC5=NC=C4 [AZD6738] (first compound max 1 µM, partner max 10 µM)
Bliss excess (GOTO (Neuroblastoma)): -0.0186 | Bliss excess [1]: -0.0039 | Bliss excess (EW-18 (Ewing's Sarcoma)): -0.0198 | Bliss excess [2]: -0.0425 | Bliss excess [3]: 0.0675 | Bliss excess [4]: -0.0058 | Bliss excess [5]: -0.0011 | Bliss excess (EW-13 (Ewing's Sarcoma)): 0.0217 | Bliss excess [6]: 0.0987 | Bliss excess [7]: -0.0234 | Bliss excess (BT-20 (Breast Carcinoma)): 0.0448 | Bliss excess [8]: -0.0111 | Bliss excess [9]: -0.0843 | Bliss excess [10]: 0.0369 | Bliss excess [11]: 0.0199 | Bliss excess (NH-12 (Neuroblastoma)): 0.0262 | Bliss excess [12]: 0.0592 | Bliss excess [13]: -0.0475 | Bliss excess [14]: -0.0399
